Results on ten compounds are retold here after ChEMBL document CHEMBL1141454, “Structural and functional basis of cyclooxygenase inhibition” (J Med Chem, 2007).

The target of test [1] is T1, Prostaglandin G/H synthase 2 (Homo sapiens, UniProt P35354).
T1 sequence (P35354 whole entry): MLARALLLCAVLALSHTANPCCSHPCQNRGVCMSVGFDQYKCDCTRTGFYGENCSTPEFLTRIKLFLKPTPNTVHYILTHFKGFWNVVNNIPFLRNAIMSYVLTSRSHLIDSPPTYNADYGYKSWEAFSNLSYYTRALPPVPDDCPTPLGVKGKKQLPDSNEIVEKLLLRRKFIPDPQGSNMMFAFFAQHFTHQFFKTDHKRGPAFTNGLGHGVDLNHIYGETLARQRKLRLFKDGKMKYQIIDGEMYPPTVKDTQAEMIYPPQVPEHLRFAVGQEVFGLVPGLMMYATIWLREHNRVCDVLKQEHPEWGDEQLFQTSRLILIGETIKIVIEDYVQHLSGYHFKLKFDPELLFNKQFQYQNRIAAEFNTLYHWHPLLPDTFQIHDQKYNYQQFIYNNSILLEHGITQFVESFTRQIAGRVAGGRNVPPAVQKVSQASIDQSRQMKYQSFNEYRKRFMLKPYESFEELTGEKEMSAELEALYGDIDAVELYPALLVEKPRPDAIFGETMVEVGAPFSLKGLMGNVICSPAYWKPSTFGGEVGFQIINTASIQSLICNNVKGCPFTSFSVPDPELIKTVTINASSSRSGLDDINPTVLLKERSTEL

Test [2] addresses Prostaglandin G/H synthase 1 (Homo sapiens, UniProt P23219).
Test [3] is filed under the species Mus musculus. Description: Inhibition of mouse COX2 V349A mutant.
The species named for test [4] is Mus musculus. Description: Inhibition of mouse COX2 V349L mutant.
A short description of test [5]: Inhibition of cyclooxygenase.
Test [6] in a line: Selectivity for COX1 over COX2.
A short description of test [7]: Inhibition of mouse COX2 R120A mutant.
Test [8] in a line: Inhibition of mouse COX2 Y355F mutant.
Test [9] in a line: Inhibition of mouse COX2 S530A mutant.

Molecules are shown by their SMILES. A value given as a limit tells only on which side of the number the result lay.

Chain of Prostaglandin G/H synthase 1 (P23219 whole entry): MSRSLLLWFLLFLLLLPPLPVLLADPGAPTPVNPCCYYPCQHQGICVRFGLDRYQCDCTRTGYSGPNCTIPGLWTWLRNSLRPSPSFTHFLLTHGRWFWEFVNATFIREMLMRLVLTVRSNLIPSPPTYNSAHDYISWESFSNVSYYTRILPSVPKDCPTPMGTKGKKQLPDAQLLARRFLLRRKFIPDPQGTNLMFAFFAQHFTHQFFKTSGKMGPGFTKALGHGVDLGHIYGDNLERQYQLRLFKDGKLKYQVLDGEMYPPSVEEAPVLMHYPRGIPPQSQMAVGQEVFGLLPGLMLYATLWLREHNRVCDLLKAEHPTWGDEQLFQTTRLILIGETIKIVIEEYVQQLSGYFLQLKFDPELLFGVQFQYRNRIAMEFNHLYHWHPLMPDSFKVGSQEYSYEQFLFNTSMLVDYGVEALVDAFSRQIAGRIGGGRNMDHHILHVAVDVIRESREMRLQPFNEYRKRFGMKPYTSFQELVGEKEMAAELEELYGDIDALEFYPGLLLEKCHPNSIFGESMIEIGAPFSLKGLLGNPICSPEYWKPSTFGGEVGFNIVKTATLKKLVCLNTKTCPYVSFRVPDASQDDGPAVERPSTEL

As to `CCOc1cccc(OCC)c1-c1ccc(C(C)C(=O)O)cc1F` (configuration not stated), the results for the IC50 in test [1] and in test [2] were 0.1 µM and 7.7 µM, respectively.
The compound `COc1ccc2c(c1)c(CC(=O)NCCc1ccccc1)c(C)n2C(=O)c1ccc(Cl)cc1` yielded an IC50 in test [2] of over 66 µM.
For the compound `COc1ccc2c(c1)c(CC(=O)O)c(C)n2C(=O)c1ccc(Cl)cc1`, the Activity in test [3] is 0.08 µM; in test [4] it was 4 µM.
Take `Cc1ccc(Nc2c(F)cccc2Cl)c(CC(=O)O)c1` [LUMIRACOXIB]: the figures for the IC50 in [1] and in [2] were 0.007 µM and over 10 µM, respectively.
Consider `COc1ccc2c(c1)c(CCNC(=O)c1ccc(Cl)cc1)c(C)n2Cc1ccc(Br)cc1`, for which, in test [2], the IC50 is over 66 µM.
As to `C/C(=N/OCc1ccccc1Nc1c(Cl)cccc1Cl)C(=O)O`, the IC50 is 0.1 µM in test [1] and over 1 µM in [2].
`CC(=O)Oc1ccccc1C(=O)O` [ASPIRIN] gave a Ki in [5] of 20000 µM. The Selectivity ratio in test [6] was 10.
In the case of `O=C(O)Cc1ccccc1Nc1c(Cl)cccc1Cl` [DICLOFENAC], the values for the IC50 in test [7], in test [8] and in test [9] were 0.257 µM, 0.137 µM and over 50 µM, respectively.
As to `COc1ccc2c(c1)c(CCOC(=O)c1ccc(Cl)cc1)c(C)n2Cc1ccc(Br)cc1`, the IC50 in test [2] was over 66 µM.
Still for that read-out and setting: in the case of `COc1ccc2c(c1)c(CC(=O)OCCc1ccccc1)c(C)n2C(=O)c1ccc(Cl)cc1` it was over 66 µM.

By IC50 is commonly meant the concentration that gives 50% inhibition. Read a high IC50 as weaker potency. Broadly, the Ki is a dissociation constant, usually derived from enzyme kinetics or from competition with a known ligand. The low end stands for higher affinity, the high end for lower affinity.
